Test results published in patent US20240199558A1, “2,4,6-TRISUBSTITUTED 1,3,5-TRIAZINES AS MODULATORS OF CX3CR1” (ASTRAZENECA AB, priority 2022, published 2024).

Molecular target: CX3CR1 (Homo sapiens (Human), UniProt P49238)
Assay: hCX3CR1 [3H]-AZD8797 competitive binding assay (filter)
Conditions: CHO-hCX3CR1 membranes, 2 nM [3H]-AZD8797
In short: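 Filtration radioligand displacement assay: competitor titrations compete with 2 nM [3H]-AZD8797 for membranes from CHO cells expressing hCX3CR1 (9 μg/well). Incubation was 2 h at room temperature in HEPES pH 7.4 with MgCl2, CaCl2, 0.5% BSA and 1% DMSO. Filters were washed with ice-cold high-salt (500 mM NaCl) buffer, and retained radioactivity was scintillation-counted.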

Chain of CX3CR1 (P49238 whole entry): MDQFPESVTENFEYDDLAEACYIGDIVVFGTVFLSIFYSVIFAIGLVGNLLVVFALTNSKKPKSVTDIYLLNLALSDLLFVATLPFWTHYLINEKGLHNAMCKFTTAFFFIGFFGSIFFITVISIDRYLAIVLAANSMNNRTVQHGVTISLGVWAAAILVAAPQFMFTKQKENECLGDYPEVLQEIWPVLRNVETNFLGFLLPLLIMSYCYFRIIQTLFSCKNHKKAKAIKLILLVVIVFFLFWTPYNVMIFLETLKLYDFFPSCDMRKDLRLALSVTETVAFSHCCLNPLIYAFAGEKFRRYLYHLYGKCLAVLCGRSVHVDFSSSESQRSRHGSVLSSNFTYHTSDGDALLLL

IC50 [nM] | Compound
104 | CC(C)C[C@H](CO)Nc1nc(CC(C)c2cccc(F)c2O)nc(NS(C)(=O)=O)n1 (stereo partly drawn) [Example 135, N-(4-(2-(3-Fluoro-2-hydroxyphenyl)propyl)-6-(((R)-1-hydroxy-4-methylpentan-2-yl)amino)-1,3,5-triazin-2-yl)methanesulfonamide]
633 | CC(=O)N(C)c1ccc(C(C)Cc2nc(N[C@@H](CO)CC(C)C)nc(NS(C)(=O)=O)n2)cc1 (stereo partly drawn) [Example 73, N-(4-(1-(4-(((R)-1-Hydroxy-4-methylpentan-2-yl)amino)-6-(methylsulfonamido)-1,3,5-triazin-2-yl)propan-2-yl)phenyl)-N-methylacetamide]
17 | CC(C)C[C@H](CO)Nc1nc(CC(C)c2cccc3cccnc23)nc(NS(C)(=O)=O)n1 (stereo partly drawn) [Example 103, N-(4-(((R)-1-Hydroxy-4-methylpentan-2-yl)amino)-6-(2-(quinolin-8-yl)propyl)-1,3,5-triazin-2-yl)methanesulfonamide]
2530 | CC(C)C[C@H](CO)Nc1nc(C[C@H](C)c2cc(F)c(F)cc2F)nc(NS(C)(=O)=O)n1 (single isomer, unassigned) [Example 35, N-(4-(((R)-1-Hydroxy-4-methylpentan-2-yl)amino)-6-((S*)-2-(2,4,5-trifluorophenyl)propyl)-1,3,5-triazin-2-yl)methanesulfonamide]
427 | CCOc1ccc(C(C)Cc2nc(N[C@@H](CO)CC(C)C)nc(NS(C)(=O)=O)n2)cc1Cl (stereo partly drawn) [Example 98, N-(4-(2-(3-Chloro-4-ethoxyphenyl)propyl)-6-(((R)-1-hydroxy-4-methylpentan-2-yl)amino)-1,3,5-triazin-2-yl)methanesulfonamide]
542 | CC(C)C[C@H](CO)Nc1nc(CC(C)c2cccc(CN3OCCC3=O)c2)nc(NS(C)(=O)=O)n1 (stereo partly drawn) [Example 101, N-(4-(((R)-1-Hydroxy-4-methylpentan-2-yl)amino)-6-(2-(3-((3-oxoisoxazolidin-2-yl)methyl)phenyl)propyl)-1,3,5-triazin-2-yl)methanesulfonamide]
110 | CC(C)C[C@H](CO)Nc1nc(CC(C)c2ccc(F)cc2O)nc(NS(C)(=O)=O)n1 (stereo partly drawn) [Example 142, N-(4-(2-(4-Fluoro-2-hydroxyphenyl)propyl)-6-(((R)-1-hydroxy-4-methylpentan-2-yl)amino)-1,3,5-triazin-2-yl)methanesulfonamide]
292 | CC(=O)Nc1ccc(C(C)Cc2nc(N[C@@H](CO)CC(C)C)nc(NS(C)(=O)=O)n2)cc1 (stereo partly drawn) [Example 59, N-(4-(1-(4-(((R)-1-Hydroxy-4-methylpentan-2-yl)amino)-6-(methylsulfonamido)-1,3,5-triazin-2-yl)propan-2-yl)phenyl)acetamide]
1930 | CC(C)C[C@H](CO)Nc1nc(C[C@H](C)c2cc(F)c(Cl)cc2F)nc(NS(C)(=O)=O)n1 (single isomer, unassigned) [Example 37, N-(4-((S*)-2-(4-Chloro-2,5-difluorophenyl)propyl)-6-(((R)-1-hydroxy-4-methylpentan-2-yl)amino)-1,3,5-triazin-2-yl)methanesulfonamide]
309 | CC[C@@H](Cc1nc(N[C@@H](CO)CC(C)C)nc(NS(C)(=O)=O)n1)c1cccc(F)c1F (single isomer, unassigned) [Example 48, N-(4-((S*)-2-(2,3-Difluorophenyl)butyl)-6-(((R)-1-hydroxy-4-methylpentan-2-yl)amino)-1,3,5-triazin-2-yl)methanesulfonamide]
153 | CC(C)C[C@H](CO)Nc1nc(CC(C)c2ccc(N3CCNCC3)cc2)nc(NS(C)(=O)=O)n1 (stereo partly drawn) [Example 54, N-(4-(((R)-1-Hydroxy-4-methylpentan-2-yl)amino)-6-(2-(4-(piperazin-1-yl)phenyl)propyl)-1,3,5-triazin-2-yl)methanesulfonamide]
336 | CC(C)C[C@H](CO)Nc1nc(CC(C)c2ccc(C#N)cc2)nc(NS(C)(=O)=O)n1 (stereo partly drawn) [Example 68, N-(4-(2-(4-Cyanophenyl)propyl)-6-(((R)-1-hydroxy-4-methylpentan-2-yl)amino)-1,3,5-triazin-2-yl)methanesulfonamide]
> 10000 | CC(C)C[C@H](CO)Nc1nc(C[C@H](C)c2c(F)ccc(F)c2F)nc(NS(C)(=O)=O)n1 (single isomer, unassigned) [Example 41, N-(4-(((R)-1-Hydroxy-4-methylpentan-2-yl)amino)-6-((S*)-2-(2,3,6-trifluorophenyl)propyl)-1,3,5-triazin-2-yl)methanesulfonamide]
283 | CC(C)C[C@H](CO)Nc1nc(CC(C)c2ccc(C#N)cc2)nc(NS(C)(=O)=O)n1 (single isomer, unassigned) [Example 165, N-(4-((R*)-2-(4-Cyanophenyl)propyl)-6-(((R)-1-hydroxy-4-methylpentan-2-yl)amino)-1,3,5-triazin-2-yl)methanesulfonamide]
186 | CC(C)C[C@H](CO)Nc1nc(C[C@H](C)c2ccc(F)c(F)c2F)nc(NS(C)(=O)=O)n1 (relative stereo) [Example 87, N-(4-(((R)-1-Hydroxy-4-methylpentan-2-yl)amino)-6-((S*)-2-(2,3,4-trifluorophenyl)propyl)-1,3,5-triazin-2-yl)methanesulfonamide]
1500 | CC(C)C[C@H](CO)Nc1nc(CC(C)c2ccc(C#N)cc2)nc(NS(C)(=O)=O)n1 (single isomer, unassigned) [Example 164, N-(4-((S*)-2-(4-Cyanophenyl)propyl)-6-(((R)-1-hydroxy-4-methylpentan-2-yl)amino)-1,3,5-triazin-2-yl)methanesulfonamide]
474 | CCC(Cc1nc(N[C@@H](CO)CC(C)C)nc(NS(C)(=O)=O)n1)c1cnc(OC)cc1F (stereo partly drawn) [Example 49, N-(4-(2-(4-Fluoro-6-methoxypyridin-3-yl)butyl)-6-(((R)-1-hydroxy-4-methylpentan-2-yl)amino)-1,3,5-triazin-2-yl)methanesulfonamide]
88 | CC(C)C[C@H](CO)Nc1nc(CC(C)c2ccc(C3CCOCC3)cc2)nc(NS(C)(=O)=O)n1 (stereo partly drawn) [Example 102, N-(4-(((R)-1-Hydroxy-4-methylpentan-2-yl)amino)-6-(2-(4-(tetrahydro-2H-pyran-4-yl)phenyl)propyl)-1,3,5-triazin-2-yl)methanesulfonamide]
> 10000 | CC(C)C[C@H](CO)Nc1nc(CCC(F)(F)c2ccc(Cl)cc2)nc(NS(C)(=O)=O)n1 [Example 153, (R)—N-(4-(3-(4-Chlorophenyl)-3,3-difluoropropyl)-6-((1-hydroxy-4-methylpentan-2-yl)amino)-1,3,5-triazin-2-yl)methanesulfonamide]
765 | COc1cc(F)c([C@@H](C)Cc2nc(N[C@@H](CO)CC(C)C)nc(NS(C)(=O)=O)n2)cn1 (single isomer, unassigned) [Example 45, N-(4-((S*)-2-(4-Fluoro-6-methoxypyridin-3-yl)propyl)-6-(((R)-1-hydroxy-4-methylpentan-2-yl)amino)-1,3,5-triazin-2-yl)methanesulfonamide]
58 | CC(C)C[C@H](CO)Nc1nc(CC(C)c2ccc3c(c2)OCO3)nc(NS(C)(=O)=O)n1 (stereo partly drawn) [Example 108, N-(4-(2-(Benzo[d][1,3]dioxol-5-yl)propyl)-6-(((R)-1-hydroxy-4-methylpentan-2-yl)amino)-1,3,5-triazin-2-yl)methanesulfonamide]
6410 | CC(C)C[C@H](CO)Nc1nc(C[C@H](C)c2cc(F)c(F)c(F)c2)nc(NS(C)(=O)=O)n1 (single isomer, unassigned) [Example 21, N-(4-(((R)-1-Hydroxy-4-methylpentan-2-yl)amino)-6-((S*)-2-(3,4,5-trifluorophenyl)propyl)-1,3,5-triazin-2-yl)methanesulfonamide]
548 | CC(C)C[C@H](CO)Nc1nc(C[C@H](C)c2cc(F)ccc2F)nc(NS(C)(=O)=O)n1 (single isomer, unassigned) [Example 23, N-(4-((S*)-2-(2,5-Difluorophenyl)propyl)-6-(((R)-1-hydroxy-4-methylpentan-2-yl)amino)-1,3,5-triazin-2-yl)methanesulfonamide]
771 | CC(C)C[C@H](CO)Nc1nc(C[C@H](C)c2ccc(Cl)cc2)nc(NS(C)(=O)=O)n1 (single isomer, unassigned) [Example 171, N-(4-((R*)-2-(4-Chlorophenyl)propyl)-6-(((R)-1-hydroxy-4-methylpentan-2-yl)amino)-1,3,5-triazin-2-yl)methanesulfonamide]
30 | CC(C)C[C@H](CO)Nc1nc(C[C@@H](C)c2ccc(N)nc2)nc(NS(C)(=O)=O)n1 (single isomer, unassigned) [Example 51, N-(4-((R*)-2-(6-Aminopyridin-3-yl)propyl)-6-(((R)-1-hydroxy-4-methylpentan-2-yl)amino)-1,3,5-triazin-2-yl)methanesulfonamide]
657 | CC(C)C[C@H](CO)Nc1nc(CC(C)c2ccc(CN3CCOCC3)cc2)nc(NS(C)(=O)=O)n1 (stereo partly drawn) [Example 95, N-(4-(((R)-1-Hydroxy-4-methylpentan-2-yl)amino)-6-(2-(4-(morpholinomethyl)phenyl)propyl)-1,3,5-triazin-2-yl)methanesulfonamide]
> 8010 | CC(C)C[C@H](CO)Nc1nc(CC(C)(C)c2ccccc2)nc(NS(C)(=O)=O)n1 [Example 152, (R)—N-(4-((1-Hydroxy-4-methylpentan-2-yl)amino)-6-(2-methyl-2-phenylpropyl)-1,3,5-triazin-2-yl)methanesulfonamide]
29 | CC(C)C[C@H](CO)Nc1nc(CC(C)c2ccc(N)cc2)nc(NS(C)(=O)=O)n1 (stereo partly drawn) [Example 112, N-(4-(2-(4-Aminophenyl)propyl)-6-(((R)-1-hydroxy-4-methylpentan-2-yl)amino)-1,3,5-triazin-2-yl)methanesulfonamide]
77 | COc1cccc(C(C)Cc2nc(N[C@@H](CO)CC(C)C)nc(NS(C)(=O)=O)n2)c1F (stereo partly drawn) [Example 99, N-(4-(2-(2-Fluoro-3-methoxyphenyl)propyl)-6-(((R)-1-hydroxy-4-methylpentan-2-yl)amino)-1,3,5-triazin-2-yl)methanesulfonamide]
